Data on 6 compounds can be found in US20240024379A1, “EXTRACT OF BACTERIA OF THE GENUS SPHINGOMONAS” (L’OREAL, priority 2020, published 2024).

What all share (assay type): cell-based
In one experiment the target is T1, hTLR2 (Homo sapiens, UniProt O60603).
T1 construct: host or cells: HEK-293
Description: TLR reporter (SEAP/NFkB) test on HEK293 cell line with hTLR2. As to the method:
(§1) The extract and the controls are tested in duplicate on recombinant HEK-293 cell lines. These cell lines functionally over-express human TLR proteins as well as a reporter gene that is a secreted alkaline phosphatase (SEAP). The production of this reporter gene is governed by an NFkB inducible promoter. The results of activation of the TLR reporters are given in the form of optical density (OD) values.
(§2) CU-T12-9 and FSL-1 are used on the cells expressing hTLR2 to respectively assess the TLR1/TLR2 and TLR2/TLR6 activities.
(§3) […] CU-T12-9 is tested at 200 nM and 300 nM.
(§4) 20 μl of the extract have been used to stimulate the reporter hTLR cell line in 200 μl of reaction volume. For the dose-response on the HEK-Blue-hTLR5 cell lines, the liquid extract obtained according to Example 1 has been tested in duplicate, at the following concentrations: 1000 μg/ml, 500 μg/ml, 250 μg/ml, 125 μg/ml, 62.5 μg/ml, 31.5 μg/ml. For the TLR1/2 and/or TLR2/6 specificity, the liquid extract obtained according to Example 1 has been tested in duplicate at the following concentrations: 100 μg/ml, 30 μg/ml and 10 μg/ml.

A further experiment addresses T2, hTLR2-1 (Homo sapiens, UniProt O60603+Q15399).
T2 construct: host or cells: HEK-293
Description: TLR reporter (SEAP/NFkB) test on HEK293 cell line with hTLR2-1. As to the method:
as §1, §2, §3
20 μl of the extract have been used to stimulate the reporter hTLR cell line in 200 μl of reaction volume. For the dose-response on the HEK-Blue-hTLR5 cell lines, the liquid extract obtained according to Example 1 has been tested in duplicate, at the following concentrations: 1000 μg/ml, 500 μg/ml, 250 μg/ml, 125 μg/ml, 62.5 μg/ml, 31.5 μg/ml. […]

Another experiment has as its target T3, hTLR2-6 (Homo sapiens, UniProt O60603+Q9Y2C9).
T3 construct: host or cells: HEK-293
Briefly: TLR reporter (SEAP/NFkB) test on HEK293 cell line with hTLR2-6. The protocol:
as §1, §2, §3, §4

Experiment [1] concerns IgE production by human B lymphocytes. Briefly: IgE production by human B lymphocytes stimulated with anti-CD40 and IL-4, ELISA. Particulars: Anti CD-40 10 μg/ml + IL-4 10 ng/ml, 14 days; for IgE: single replicates. The protocol:
In the study, the effect of the extract has been assessed on the IgE production by purified human B lymphocytes (isolation of the CD19^+ lymphocytes from mononuclear cells of the peripheral blood). More specifically, the IgE production has been induced by the stimulation of the B lymphocytes with the combination of anti-CD40 antibody and of IL-4. After 14 days of incubation, the amount of IgE released in the culture supernatants has been quantified using a specific ELISA kit. Concomitantly with the tested extract, 3 other molecules have also been assessed in this test. the reference standard CpG-ODN 2006 (a TLR9 ligand), as well as IFN-γ and PGE2 have been tested as reference compounds.
The B lymphocytes CD19^+ have been isolated, sown in 24-well plates and incubated over one night in the culture medium. Afterwards, the compounds to be tested, tested alone or in combination, and the reference compounds have been added, or not (controls), and the cells have been pre-incubated for 2 hours. Afterwards, the inducer (a CD40+IL-4 combination) has been added, or not (unstimulated control) and the treatments with the test or the reference compounds have been repeated. Afterwards, the cells have been incubated for 14 days at a final density of 1.7×10^6 cells/ml). […]
The amount of IgE released in the culture supernatants has been measured using a specific ELISA kit according to the instructions of the supplier.

In the next experiment the test system is Claudin 1. Description: Gene expression by RT-qPCR in normal human epidermal keratinocytes, Claudin 1. The settings on record: NHEK, 24 hours; 1.00E−07 M, DMSO. As to the method: (§5) Normal human epidermal keratinocytes (NHEK) have been sown in 48-well culture plates and then cultured in a culture medium for 3 days at 37° C. and 5% of CO2 with a renewal of the culture medium after first 24 hours of culture. At the end of the incubation, the culture medium has been replaced with a test medium (supplemented with 1.5 mM of CaCl2)) containing no (control) or containing the compounds to be tested, and the cells has then been incubated for 24 hours. All conditions have been carried out in duplicate. At the end of the treatments, the culture media have been eliminated and the cells have been rinsed twice with PBS (without CaCl2, without MgCl2). Afterwards, the total RNA has been isolated using an extraction kit. The quantification of RNA and its quality control have been analyzed by means of Labchip GX (Perkin Elmer). The expression of the selected transcripts has been analyzed by quantitative PCR in two steps. First of all, the cDNAs have been transcribed in the opposite direction from the RNAs. Afterwards, the quantitative PCR experiments have been carried out using a real-time PCR system. […] The RNAs are extracted, quantified and their quality is checked before performing their reverse transcription into cDNA. Finally, an RT-qPCR is carried out for each experimental condition in order to quantify the expression of the set of selected genes.
For orientation: Quantitative PCR measures a nucleic acid by following its amplification.

A further experiment deals with Cornifelin. Description: Gene expression by RT-qPCR in normal human epidermal keratinocytes, Cornifelin. Particulars: NHEK, 24 hours; 1.00E−07 M, DMSO. The protocol: as §5
A further experiment has as its system Zonula Occludens-1. Briefly: Gene expression by RT-qPCR in normal human epidermal keratinocytes, Zonula Occludens-1. The settings on record: NHEK, 24 hours; 1.00E−07 M, DMSO. The protocol:
as §5

Several values for one entry are separate records, joined by “and”; a condition that tells them apart may be missing. Equal values may be shown once.

T3 sequence (O60603 21-784): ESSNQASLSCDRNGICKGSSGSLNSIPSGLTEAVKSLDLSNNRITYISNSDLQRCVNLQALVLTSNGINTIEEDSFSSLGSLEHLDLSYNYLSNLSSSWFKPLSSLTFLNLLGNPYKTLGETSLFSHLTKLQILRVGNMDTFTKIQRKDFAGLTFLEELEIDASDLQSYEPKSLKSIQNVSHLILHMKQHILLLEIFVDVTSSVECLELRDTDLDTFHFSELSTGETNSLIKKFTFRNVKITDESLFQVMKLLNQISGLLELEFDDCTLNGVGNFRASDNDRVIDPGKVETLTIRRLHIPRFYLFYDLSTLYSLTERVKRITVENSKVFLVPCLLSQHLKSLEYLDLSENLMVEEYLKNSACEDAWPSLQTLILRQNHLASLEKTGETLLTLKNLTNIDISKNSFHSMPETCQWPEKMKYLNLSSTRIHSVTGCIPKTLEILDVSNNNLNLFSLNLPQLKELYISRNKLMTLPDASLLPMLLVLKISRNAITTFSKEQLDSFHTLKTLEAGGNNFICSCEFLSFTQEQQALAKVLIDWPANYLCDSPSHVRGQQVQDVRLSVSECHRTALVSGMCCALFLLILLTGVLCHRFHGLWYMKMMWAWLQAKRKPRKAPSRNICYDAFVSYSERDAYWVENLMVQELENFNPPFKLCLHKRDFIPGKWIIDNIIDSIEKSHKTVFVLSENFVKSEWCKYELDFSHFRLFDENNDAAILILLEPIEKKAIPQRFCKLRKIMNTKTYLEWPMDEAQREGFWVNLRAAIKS
T3 sequence (Q9Y2C9 32-796): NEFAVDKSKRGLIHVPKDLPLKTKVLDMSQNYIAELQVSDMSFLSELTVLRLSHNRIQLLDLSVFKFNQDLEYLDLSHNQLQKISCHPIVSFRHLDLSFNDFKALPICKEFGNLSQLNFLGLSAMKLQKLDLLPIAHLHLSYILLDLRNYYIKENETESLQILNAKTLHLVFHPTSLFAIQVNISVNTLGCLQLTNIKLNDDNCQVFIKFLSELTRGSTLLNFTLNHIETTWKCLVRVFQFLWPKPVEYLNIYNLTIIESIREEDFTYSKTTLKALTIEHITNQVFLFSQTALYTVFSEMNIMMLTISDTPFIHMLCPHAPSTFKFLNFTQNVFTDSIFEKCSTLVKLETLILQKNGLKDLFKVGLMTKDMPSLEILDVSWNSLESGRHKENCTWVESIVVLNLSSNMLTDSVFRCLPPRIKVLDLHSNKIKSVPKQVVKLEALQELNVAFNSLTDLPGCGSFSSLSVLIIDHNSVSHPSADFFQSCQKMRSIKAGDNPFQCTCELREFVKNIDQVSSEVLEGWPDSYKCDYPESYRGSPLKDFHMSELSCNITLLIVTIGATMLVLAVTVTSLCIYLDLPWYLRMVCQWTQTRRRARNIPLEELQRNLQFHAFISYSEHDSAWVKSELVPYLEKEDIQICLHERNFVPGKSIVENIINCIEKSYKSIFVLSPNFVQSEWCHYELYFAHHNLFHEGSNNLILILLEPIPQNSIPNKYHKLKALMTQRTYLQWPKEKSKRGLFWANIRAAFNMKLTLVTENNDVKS
T1 sequence (O60603 21-784): as the sequence (O60603 21-784) above
T2 sequence (O60603 21-784): as above
T2 sequence (Q15399 25-786): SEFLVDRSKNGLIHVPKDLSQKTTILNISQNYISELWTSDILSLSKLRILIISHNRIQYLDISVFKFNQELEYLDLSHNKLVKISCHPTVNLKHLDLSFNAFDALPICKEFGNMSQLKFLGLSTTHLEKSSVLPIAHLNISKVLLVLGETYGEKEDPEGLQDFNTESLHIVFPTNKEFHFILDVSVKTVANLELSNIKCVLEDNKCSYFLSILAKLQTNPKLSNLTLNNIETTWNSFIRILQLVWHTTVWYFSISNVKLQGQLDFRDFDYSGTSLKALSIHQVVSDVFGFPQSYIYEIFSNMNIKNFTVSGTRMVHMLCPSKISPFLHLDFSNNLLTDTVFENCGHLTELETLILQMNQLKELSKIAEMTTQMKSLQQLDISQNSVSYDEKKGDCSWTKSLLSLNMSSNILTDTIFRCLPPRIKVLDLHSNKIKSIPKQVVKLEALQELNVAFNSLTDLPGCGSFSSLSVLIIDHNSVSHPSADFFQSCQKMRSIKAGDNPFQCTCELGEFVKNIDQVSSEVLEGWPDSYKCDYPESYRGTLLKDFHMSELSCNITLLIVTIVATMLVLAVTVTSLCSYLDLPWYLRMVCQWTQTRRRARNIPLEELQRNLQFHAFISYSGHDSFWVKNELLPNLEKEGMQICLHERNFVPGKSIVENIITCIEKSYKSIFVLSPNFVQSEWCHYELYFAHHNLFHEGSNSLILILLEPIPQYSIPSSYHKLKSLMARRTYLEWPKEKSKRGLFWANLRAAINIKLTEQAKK

On to `CNc1ccc([N+](=O)[O-])cc1-n1cnc(-c2ccc(C(F)(F)F)cc2)c1` [CUT12-9], for which the DO on hTLR2 (200 nM) is given as 3.066; on hTLR2 (300 nM), 3.227; at hTLR2-1 (200 nM) it was 1.474; on hTLR2-1 (300 nM), 1.667; on hTLR2-6 (200 nM), 0.029; on hTLR2-6 (300 nM) it was 0.024.

On to `CCCCC[C@H](O)/C=C/[C@H]1[C@H](O)CC(=O)[C@@H]1C/C=C\CCCC(=O)O` [PGE2], for which, in experiment [1] (1 μM), the “IgE % of the stimulated control” value came to 58%; the “IgE Mean” value turned out to be 2126 pg/mL; the IgE is 2942 pg/mL and 1495 pg/mL and 1941 pg/mL.

Consider `CC1=C(/C=C/C(C)=C/C=C/C(C)=C/CO)C(C)(C)CCC1` [Retinol], for which, in the experiment with Claudin 1, the “Average expression of the genes, Claudin 1” value is 0.63. For the same compound, in the experiment on Cornifelin, the “Average expression of the genes, Cornifelin” value stood at 0.77. In addition, in the experiment on Zonula Occludens-1, the “Average expression of the genes, Zonula Occludens-1” value is on record as 1.61.

As to CpG-ODN 2006, in experiment [1] (3 μM), the “IgE % of the stimulated control” value is reported as under 3%, the “IgE Mean” value was under 123 pg/mL and the IgE was under 123 pg/mL. Further, in experiment [1] (3 μM, listed as CpG-ODN2006), the “IgE % of the stimulated control” value is reported as under 3%.

FSL1: the DO came to 1.727 at hTLR2 (10 pg/ml); 2.174 on hTLR2 (30 pg/ml); 0.027 at hTLR2-1 (10 pg/ml); 0.013 on hTLR2-1 (30 pg/ml); 1.373 on hTLR2-6 (10 pg/ml); 2.047 at hTLR2-6 (30 pg/ml).

As for “IFN-γ: reference compound, R&D Systems, ref. 285-IF-100/CF”, in experiment [1] (10 ng/ml), the “IgE % of the stimulated control” value is on record as 20%; the “IgE Mean” value was determined as 738 pg/mL; the IgE is 1012 pg/mL and 166 pg/mL and 1036 pg/mL.
